How the values were obtained:
HepG2 cells [1] = assay: Fat accumulation inhibitory activity in hepatocytes (palmitate, Nile-Red); assay type: cell-based, human; settings: 5 μM compound; palmitate 72 hours; compared with positive control HET0016
Experimental: After culturing HepG2 cells, a human liver cell line, in a high-concentration DMEM medium (Dulbecco's modified Eagle's medium, glucose 25 mM) containing 10% fetal bovine serum (FBS), an experiment was performed to measure fat accumulation by the following method.
First, HepG2 cells were grown to 5×10^3 cells/well in a 96-well plate (black, clear bottom culture plate) by the above method, and 5 μM of each compound screened in Example 1 was added thereto, followed by incubation for 6 hours. Here, palmitate, a fatty acid that induces fat accumulation in hepatocytes, is added, and then placed in an incubator at 37° C. for 72 hours to react. Thereafter, 4% paraformaldehyde was added and reacted at room temperature for 15 minutes to fix, and then Nile-Red solution was added, light was blocked, and reaction was performed at 37° C. for 10 minutes. After the reaction time, fluorescence was measured with a microplate reader (Excitation: 530 nm, Emission: 635 nm).

HepG2 cells [2] = assay: Glucose absorption promoting effect (2-NBDG uptake) under ER stress; assay type: cell-based, human; settings: 5 μM compound
Experimental: HepG2 cells, a human liver cell line, were cultured in a high-glucose DMEM (Dulbecco's modified Eagle's medium, glucose 25 mM) medium in the presence of 10% fetal bovine serum (FBS), and then glucose uptake experiments were performed as follows.
First, HepG2 cells were grown to 1×10^4 cells/well in a 96-well plate (black, clear bottom culture plate) by the above method, and then 5 μM of each compound screened in Example 1 was added and incubated for 6 hours. Here, thapsigargin or tunicamycin, which induces endoplasmic reticulum stress, was added to hepatocytes, and then placed in an incubator at 37° C. for 24 hours to react. After that, insulin and 2-NBDG (2-(N-(7-Nitrobenz-2-oxa-1,3-diazol-4-yl)Amino)-2-Deoxyglucose) were added and reacted in an incubator at 37° C. for 3 hours, and after washing with PBS (phosphate buffered saline), fluorescence was measured with a microplate reader (Excitation: 488 nm, Emission: 508 nm).

HepG2 cells [3] = assay: Active oxygen (ROS) scavenging ability under ER stress (H2DCFDA); assay type: cell-based, human; settings: 5 μM compound; for amount of ROS: Thapsigargin or Tunicamycin; for inhibition of ROS production and removal of ROS: Thapsigargin-treated group, compared with HET0016
Experimental: After culturing HepG2 cells, a human liver cell line, in high-glucose DMEM medium (Dulbecco's modified Eagle's medium, glucose 25 mM) in the presence of 10% fetal bovine serum (FBS), an experiment was performed to measure the ability to remove reactive oxygen species by the following method.
First, HepG2 cells were grown to 1×10^4 cells/well in a 96-well plate (black, clear bottom culture plate) by the above method, and then 5 μM of each compound screened in Example 1 was added and incubated for 6 hours. After adding thapsigargin or tunicamycin to induce endoplasmic reticulum stress, the reaction was put in an incubator for 24 hours. After that, 5 μM H2DCFDA (cell-permeant 2′,7′-dichlorodihydrofluorescein diacetate) was added and reacted for 30 minutes in an incubator at 37° C. Thereafter, after washing with PBS, it was placed in an incubator at 37° C. for 30 minutes and waited for luminescence to occur. Thereafter, fluorescence was measured with a microplate reader (Excitation: 488 nm, Emission: 508 nm).

CYP4A (CYP4A11) = molecular target: T1, CYP4A (CYP4A11) (Homo sapiens, UniProt Q02928); assay: CYP4A activity inhibition, Luciferin-4A luminescence with CYP4A expressing HepG2 cell lysate; assay type: biochemical; settings: FIG. 1: all compounds at 5 μM; FIG. 2: by concentration; compared with HET0016
T1 construct: expressed in transfected cells; host or cells: HepG2 (human liver cell line), RIPA lysate
T1 sequence (Q02928 5-519): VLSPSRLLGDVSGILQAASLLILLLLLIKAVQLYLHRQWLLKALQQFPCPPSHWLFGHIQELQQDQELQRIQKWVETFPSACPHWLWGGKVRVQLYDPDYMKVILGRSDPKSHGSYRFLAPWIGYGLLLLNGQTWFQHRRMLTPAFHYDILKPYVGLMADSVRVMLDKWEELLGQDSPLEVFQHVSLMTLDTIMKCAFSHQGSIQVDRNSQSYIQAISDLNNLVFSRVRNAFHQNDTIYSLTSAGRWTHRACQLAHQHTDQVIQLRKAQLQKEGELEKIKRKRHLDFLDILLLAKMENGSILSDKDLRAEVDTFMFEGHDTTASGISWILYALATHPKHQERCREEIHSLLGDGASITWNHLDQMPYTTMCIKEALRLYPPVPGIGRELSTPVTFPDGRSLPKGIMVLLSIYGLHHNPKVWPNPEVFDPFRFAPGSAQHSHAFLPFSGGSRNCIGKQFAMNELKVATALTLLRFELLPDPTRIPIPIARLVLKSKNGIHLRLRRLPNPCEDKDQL
Experimental: CYP4A11 DNA (GenBank: S67580.1) was transfected into HepG2 cells, a human liver cell line, and cultured in an incubator for 24 hours so that the protein was expressed. After that, cells were pulverized by adding RIPA buffer (20 mM Tris-HCl (pH 7.5), 150 mM NaCl, 1 mM Na2EDTA, 1 mM EGTA, 1% NP-40, 1% sodium deoxycholate, 2.5 mM sodium pyrophosphate, 1 mM b-glycerophosphate, 1 mM Na3VO4, 1 μg/ml leupeptin) to extract proteins, and then CYP4A activity experiment and compound screening were performed as follows. […]
After putting it in the NADPH Regeneration system (20× sol.A, 100× sol.B in water, Cal. Number: D399, Thermo Fisher SCIENTIFIC), leave it at room temperature for 1 hour to allow the CYP4A reaction to occur sufficiently, and CYP4A reaction is finished by adding Luciferin Detection reagent, and induce a luminescence reaction to occur, and the reaction was carried out at room temperature for 20 minutes. The degree of inhibition of CYP4A activity was measured by comparing the luminescence values from each well with a microplate reader.

[4] = Thapsigargin or Tunicamycin, compared with positive control HET0016
[5] = Tunicamycin-treated group, compared with HET0016

SMILES	fat accumulation in liver cells (Nile-Red fluorescence) (HepG2 cells [1])	glucose absorption promoting effect (2-NBDG fluorescence) (HepG2 cells [2]; [4])	glucose absorption promoting effect (2-NBDG fluorescence) (HepG2 cells [2]; [5])	amount of ROS (HepG2 cells [3])	inhibition of ROS production and removal of ROS (HepG2 cells [3])	CYP4A inhibitory ability (luminescence) (CYP4A (CYP4A11))
CC(=O)Nc1ccc(S(=O)(=O)N2CCN(c3cc(C)nc4ccccc34)CC2)cc1 [#18-2, N-(4-((4-(2-methylquinolin-4-yl)piperazin-1-yl)sulfonyl)phenyl)acetamide]	suppressed to a degree similar to that of the positive control group (HET0016)	significant to the same or higher degree than that of the positive control group (HET0016)	more effective in promoting glucose absorption than the known HET0016 compound	significantly decreased	better inhibition of ROS production and removal of ROS than HET0016	particularly excellent among the selected compounds
CC(=O)Nc1ccc(S(=O)(=O)N2CCN(c3ccnc4cc(Cl)ccc34)CC2)cc1 [#18-1, N-(4-((4-(7-chloroquinolin-4-yl)piperazin-1-yl)sulfonyl)phenyl)acetamide]	suppressed to a degree similar to that of the positive control group (HET0016)	significant to the same or higher degree than that of the positive control group (HET0016)	more effective in promoting glucose absorption than the known HET0016 compound	significantly decreased	better inhibition of ROS production and removal of ROS than HET0016	particularly excellent among the selected compounds

From patent US12274705B2, “Composition comprising CYP4A-inhibiting compound as active ingredient for preventing or treating metabolic diseases” (Korea Basic Science Institute, priority 2018, dated 2025)
